The test system of data set [1] is Spontaneously Hypertensive Rat (SHR). The data set can be described thus: Open field test, juvenile SHR rats. It counts as in vivo. The settings on record: 200 mg/kg i.p., second 10 minutes period, vs vehicle, p<0.001. From the text: The inventors have examined the potential new therapeutic application of Stiripentol (STP, Diacomit®) in attention deficit and hyperactivity disorder (ADHD). For this, the effect of an acute administration of Stiripentol, on hyperactivity in rats was studied. The model chosen for this study is the Spontaneously Hypertensive Rat (SHR), a rat model that has been described as a model for hyperactivity (Sagvolden et al. (1992) Behav. Neural. Biol. 58:103-112; Sagvolden et al. (2009) Neuropharmacology 57:619-626; Davids et al. (2003) Brain Res. Brain Res. Rev. 42:1-21) and three behavioral tests were run: an open field test, an actimetry test and a grip test.
Juvenile (25-30 days old, 80-120 g) or adolescent (40-45 days old, 140-160 g) male Wistar SHR rats or the control strain Wistar kyoto (WKY) rats, from River Germany, were used in this study. […]
Rats are placed in the middle of an open field (a closed arena of 1 m×1 m), and recorded with a videotracking system (Videotrack, Viewpoint S.A., Lyon France). […] The number of rearings and zone changes is recorded during 2 consecutive 10 minutes periods. […]
(§1) Data are represented as the mean±standard error of mean (S.E.M.). The difference between Stiripentol and vehicle treated rats, was assessed with an ANOVA or repeated measures ANOVA (one factor repetition). […]

The test system of data set [2] is Wistar kyoto (WKY) rats. The data set can be described thus: Open field test, juvenile WKY control rats. The settings on record: 200 mg/kg i.p., second 10 minutes period, vs vehicle. It counts as in vivo, rat. On the procedure: (§2) Juvenile (25-30 days old, 80-120 g) or adolescent (40-45 days old, 140-160 g) male Wistar SHR rats or the control strain Wistar kyoto (WKY) rats, from River Germany, were used in this study. They were housed 2 per cage (Techniplast ref. 1291), and maintained in a 12 h light/dark cycle (light ON at 7 AM). Food and water were provided ad libitum. Rats were acclimated to the animal facilities at least 5 days before testing started. The experiments were conducted in accordance with the European Recommendations (directive 86/609/EEC) for the use and care of laboratory animals.
Rats are placed in the middle of an open field (a closed arena of 1 m×1 m), and recorded with a videotracking system (Videotrack, Viewpoint S.A., Lyon France). The arena is separated in 9 equivalent zones on the analysis software. Illumination intensity is set around 30 lux. The number of rearings and zone changes is recorded during 2 consecutive 10 minutes periods. The test is started forty five minutes after vehicle or STP injection. For juvenile rats (around 25 days old, n=30 SHR rats, n=30 WKY rats), each rat was randomly assigned to a test group and tested once. […]
as §1

The subject of data set [3] is Spontaneously Hypertensive Rat (SHR). The data set can be described thus: Actimetry (opto-varimex), juvenile SHR rats. The settings on record: 200 mg/kg i.p., vs vehicle. It counts as in vivo. As for the experimental part:
as §2
(§3) Animals are placed in the opto-varimex system (Plexiglas arena, 42×42 cm, Columbus Instruments, Columbus, Ohio), an automated system to quantify their activity as horizontal or vertical movements. Animals are habituated to the behavioral room for one hour before the beginning of the test, illumination intensity is around 400 lux. Activity is recorded immediately after placing the animal in the system, forty five minutes after injection, for a one hour period. Animals are assigned to a test group and tested only once. […]
as §1

The test system of data set [4] is Wistar kyoto (WKY) rats. Nature of the data set: Actimetry (opto-varimex), juvenile WKY control rats. It counts as in vivo, rat. The settings on record: 200 mg/kg i.p., vs vehicle. On the procedure: as §2, §3, §1
For data set [5], the system named is WKY (control) or SHR adolescent rats. The data set can be described thus: Grip test (muscular strength). The conditions noted are these: WKY and SHR rats (40-45 days old), 200 mg/kg i.p., 1 hour after administration, p=0.058, listed as STP. It counts as in vivo, rat. On the procedure:
The grip test measures the muscular strength of the animal. This test is used to identify myorelaxant properties of compounds. An electronic system is used (Bioseb) to measure the force developed by a rat grasping a T-shape bar with its forelimb. Five consecutive measures are taken, data are expressed as mean±standard error of mean. […] Measures are taken 60 minutes after intraperitoneal (i.p.) injection.
Stiripentol (batch 176, dissolved in 5% tween 80 in 0.9% NaCl) was administered i.p. at the dose of 200 mg/kg with an injection volume of 10 ml/kg.
Data are represented as the mean±standard error of mean (S.E.M.). The difference between Stiripentol and vehicle treated rats, was assessed with an ANOVA or repeated measures ANOVA (one factor repetition). Significance was set at p<0.05 (Sigma Stat, v3.5, SPSS, Chicago, USA).

The conditions of data set [6]: several animal models; cited from earlier work.
For data set [7], the system named is epilepsy seizures in children presenting with Dravet syndrome. The conditions noted are these: add-on therapy to valproate and clobazam; cited from earlier work.

Data on one compound can be found in patent US20160331723A1, “PHARMACOLOGICAL TREATMENT OF ATTENTION DEFICIT AND/OR HYPERACTIVITY” (BIOCODEX, priority 2013, published 2016).

With `CC(C)(C)C(O)/C=C/c1ccc2c(c1)OCO2` (racemic) [Stiripentol, 1-penten-3-ol,1-(1,3-benzodioxol)-4,4-dimethyl], the “rearing activity in open field” value was “significantly decreases” in data set [1] (SHR juvenile rats (25 days old)) and “no effect” in the data set with Wistar kyoto (WKY) rats [2]. In data set [1] (SHR juvenile rats), the “number of zone changes in open field” value is “decreased”. Moreover, the “rearing behavior in actimetry” value in data set [3] is “statistically decreases”. Moreover, in the data set with Wistar kyoto (WKY) rats [4] (WKY control juvenile rats, one hour recording), the “locomotor (ambulatory) activity in actimetry” value is recorded as “no effect”. For the same compound, the “number of rearings in actimetry” value with Wistar kyoto (WKY) rats [4] (WKY juvenile rats) is recorded as “no effect”. Further, the “strength developed in the grip test (myorelaxant effect)” value in data set [5] was “no significant effect”. In data set [6], the anticonvulsant activity result was “shown anticonvulsant activity”. Besides, in data set [7], the “efficacy in controlling epilepsy seizures (responder rate)” value is given as “demonstrated”.
